Experimental data published in US20230010803A1, “TREATMENTS FOR DIFFUSE LARGE B-CELL LYMPHOMA” (Janssen Pharmaceutica NV, priority 2021, published 2023).

Columns and labels:
non-GCB DLBCL [1] = experiment: Phoenix phase III randomized trial of R-CHOP with or without ibrutinib, analysed by LymphGen genetic subtype; type: in vivo, human; details: younger patients (age≤60) with N1 DLBCL (n=13)
non-GCB DLBCL [2] = details: cited from earlier work

SMILES: C=CC(=O)N1CCC[C@@H](n2nc(-c3ccc(Oc4ccccc4)cc3)c3c(N)ncnc32)C1 [ibrutinib]
- 3-year EFS (non-GCB DLBCL [1]): 100%
- 3-year OS (non-GCB DLBCL [1]): 100%
- toxicity compared to the placebo arm (non-GCB DLBCL [2]; older patients on the ibrutinib arm): significantly more toxicity
- toxicity of addition of ibrutinib to R-CHOP (non-GCB DLBCL [2]; younger patients with non-GCB DLBCL): did not significantly increase toxicity
